Source: paper PMC3927586, “Protein kinase C-delta inactivation inhibits the proliferation and survival of cancer stem cells in culture and in vivo” (BMC Cancer, 2014)

Tests used:
Type in all cases: cell-based, human
[1] = system: Hs578T cells; experiment: Tumor spheroid formation, Hs578T; settings: for effect on formation of spheroids, Hs578T: added to culture medium, 96 hr, p≤0.001
Description: (§1) Tumor self-renewing and anchorage-independent spheroids were obtained by culturing breast cancer cells MCF7, Hs587T and MDA231; melanoma cells SBcl2 and FM6; human breast cancer stem cells and pancreatic cancer stem cells in stem cell-selective conditions according to the manufacturer’s instructions (StemCell Technologies, Tukwila, WA). Briefly, cancer and cancer stem cells were propagated in 6-well ultra-low adherent plates (Corning) in Complete MammoCult Medium (Human) by adding 50 mL of MammoCult Proliferation Supplements to 450 mL of MammoCult Basal Medium (StemCell Technologies). The following were added to obtain Complete MammoCult Medium: 4 ug/mL Heparin (StemCell Technologies), 0.48 μg/mL hydrocortisone (StemCell Technologies), 200 U penicillin/ml; and 200 μg streptomycin/ml (Invitrogen).
Figure 4 Effects of PKCδ inhibitors on human tumor cell spheroid formation. (A) Hs578T and MCF7 were plated under adherent or non-adherent conditions. Tumor spheroids and adherent cells were collected at 96 hr, stained for CD24 and CD44, and analyzed by flow cytometry. (B) Hs578T, MCF7, breast cancer stem cells (BCSC) and pancreatic cancer stem cells (PCSC) were plated in tumor spheroid media, in the presence of rottlerin, BJE6-106, or DMSO (Control). Tumor spheroids were enumerated at 96 hr, and normalized to the number of spheroids in the control cultures (assigned an arbitrary value of 100%). p values for comparison between vehicle and rottlerin or BJE6-106 effects were significant (p≤0.001). Photographs are of representative areas of the culture plates. (C) MCF7 cells were exposed BJE6-106 or to rottlerin at the indicated concentrations. The corresponding equivalent volume of solvent (DMSO) was used as a vehicle control (Vehicle). After 24, 48 and 72 hr of exposure, cell mass was evaluated by MTT assay. Control values were normalized to 100%. p values for comparison between vehicle and rottlerin effects on cell number at 24 hr reached significance at 5 μM, and for BJE6-106 at 0.5 μM (p ≤ 0.02), and were significant for all concentrations tested at 48 and 72 hr time points. (D) Hs578T cells were exposed to vehicle or BJE6-106 (1 μM) for 6, 12, 24, 48 or 96 hr. Viable cells were enumerated and re-plated in media without BJE6-206, and spheroid numbers were quantitated 96 hr later. p values for comparison between vehicle and BJE6-106 effects on spheroid number were significant after 6 hr of exposure (p≤0.02), and remained significant at all time points thereafter. Error bars represent SEM.

[2] = system: SBcl2; experiment: Tumor spheroid growth, SBcl2 melanoma; settings: p < 0.001
Description: as §1

[3] = system: MiaPaCa2; experiment: Tumor spheroid growth, MiaPaCa2 pancreatic cancer; settings: p < 0.001
[4] = system: PC3; experiment: Tumor spheroid growth, PC3 prostate cancer; settings: p < 0.001
[5] = system: MCF 10C cells; experiment: Tumor spheroid formation, MCF 10C; settings: spheroids enumerated at 10 days
Description: as §1
Figure 5 Effects of PKCδ inhibitors on growth and spheroid formation in non-transformed and transformed human breast epithelial cells. […] After 24, 48 and 72 hr of exposure, cell mass was evaluated by MTT assay. […] (C) MCF 10A and MCF 10C cells were plated at 10,000 cells per well in tumor spheroid media, and spheroid formation was assessed at days 10 and 21. […]

Row | SMILES | exposure time for near maximum inhibition of spheroid formation (washout) ([1]; BJE6-106 at 1 μM, Hs578T) [h] | exposure time that significantly repressed spheroid formation (washout) ([1]; BJE6-106 at 1 μM, Hs578T, spheroids counted 96 hr after re-plating) [h] | effect on formation of spheroids, Hs578T [1] | inhibition of tumor spheroid growth, SBcl2 ([2]; BJE6-106 at 0.5-1.0 μM) [%] | inhibition of tumor spheroid growth, MiaPaCa2 ([3]; BJE6-106 at 0.5-1.0 μM) [%] | inhibition of tumor spheroid growth, PC3 ([4]; BJE6-106 at 0.5-1.0 μM) [%] | effect on growth of MCF 10C spheroids ([5]; BJE6-106 at 1 μM) | inhibition at 10 µM ([2]; Homo sapiens, SBcl2, rottlerin at 10 μM) [%] | inhibition at 10 µM ([3]; Homo sapiens, MIA PaCa-2, rottlerin at 10 μM) [%] | inhibition at 10 µM ([4]; Homo sapiens, PC-3, rottlerin at 10 μM) [%] | effect on growth of MCF 10C spheroids ([5]; rottlerin at 10 μM)
1 | CC1(C)C=Cc2cc(CCn3c4ccccc4c4ccccc43)cc(C=O)c2O1 [BJE6-106, 6-(2-(9H-carbazol-9-yl)ethyl)-2,2-dimethyl-2H-chromene-8-carbaldehyde] | ≤ 24 | 6 | very efficiently inhibited | > 99.5 | > 97 | > 96 | efficiently inhibited | – | – | – | –
2 | CC(=O)c1c(O)c(C)c(O)c(Cc2c(O)c3c(c(C(=O)/C=C/c4ccccc4)c2O)OC(C)(C)C=C3)c1O [rottlerin, Rottlerin, reference compound] | – | – | very efficiently inhibited | – | – | – | – | > 99.5 | > 97 | > 96 | efficiently inhibited
